Consider 18 compounds from patent US20250320213A1, “Nitrogen-Containing Heterocyclic Compounds” (Pfizer Inc., priority 2024, published 2025).

In general, EC50 refers to the midpoint of the concentration-response curve. One may read the IC50 as the concentration that inhibits the measured activity by half. Low readings indicate greater potency, high ones weaker potency.

One test addresses T1, STAT6 (Homo sapiens, UniProt P42226).
T1 construct: stably transfected HaCaT keratinocyte cell line, which expresses NanoLuc luciferase reporter gene under the transcriptional control of the STAT6 responsive promoter; endogenous in cells; host or cells: HaCaT keratinocyte reporter cell line (stably transfected with a NanoLuc reporter)
T1 sequence (P42226 1-847): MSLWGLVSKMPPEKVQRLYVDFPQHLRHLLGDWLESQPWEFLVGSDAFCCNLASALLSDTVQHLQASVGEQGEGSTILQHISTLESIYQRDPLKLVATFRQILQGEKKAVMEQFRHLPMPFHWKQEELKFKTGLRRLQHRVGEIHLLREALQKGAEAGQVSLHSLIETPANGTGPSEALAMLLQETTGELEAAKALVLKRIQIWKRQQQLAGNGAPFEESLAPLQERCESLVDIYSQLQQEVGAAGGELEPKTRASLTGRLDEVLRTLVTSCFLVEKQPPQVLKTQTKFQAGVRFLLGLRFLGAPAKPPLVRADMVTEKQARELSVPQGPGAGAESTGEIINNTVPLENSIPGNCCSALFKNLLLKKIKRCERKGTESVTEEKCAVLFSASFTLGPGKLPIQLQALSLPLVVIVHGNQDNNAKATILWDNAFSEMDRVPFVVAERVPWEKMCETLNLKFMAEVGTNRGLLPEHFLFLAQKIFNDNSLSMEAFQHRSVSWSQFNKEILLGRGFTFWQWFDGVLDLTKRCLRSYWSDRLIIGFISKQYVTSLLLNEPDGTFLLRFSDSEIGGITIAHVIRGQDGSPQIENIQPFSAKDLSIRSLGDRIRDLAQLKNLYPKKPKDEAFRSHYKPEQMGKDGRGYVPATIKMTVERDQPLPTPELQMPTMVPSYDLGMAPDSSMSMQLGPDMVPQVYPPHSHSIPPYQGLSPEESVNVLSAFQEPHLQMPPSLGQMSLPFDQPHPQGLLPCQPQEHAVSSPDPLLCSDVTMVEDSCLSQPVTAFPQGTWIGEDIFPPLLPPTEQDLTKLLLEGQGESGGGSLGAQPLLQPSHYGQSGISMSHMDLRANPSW
The test can be described thus: STAT6 Reporter Luciferase Assay (IL-13 stimulated HaCaT keratinocyte NanoLuc reporter cells). As to conditions: IL-13 stimulated HaCaT STAT6 NanoLuc reporter cells; read-out: Reporter EC50. Type of test: cell-based. Put shortly:
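HaCaT cells stably carrying a NanoLuc reporter driven by the STAT6-responsive IL-13Ra2 promoter were preincubated with compounds for 2 h at 37 °C in 2% FBS medium. Cells were then stimulated with 0.12 nM IL-13 for 4 h, and luminescence was read after Nano-Glo substrate. Compounds ran as 11-point 4-fold dilutions in duplicate.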

The test system of test [1] is CCL17 secretion in peripheral human whole blood. As to the kind of experiment: Human Whole Blood (HWB) CCL17 TR-FRET Assay (IL-13 stimulated CCL17 secretion). The class given is cell-based. The settings on record: Homo sapiens, 48 h, human whole blood, IL-13 stimulated. An outline of the steps:
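IC50 values reflect inhibition of IL-13-driven CCL17 release in human whole blood. Blood was preincubated with compound 2 h, stimulated 48 h at 37 °C with IL-13 (10 ng/mL final), and serum CCL17 was measured by TR-FRET.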
On the technique in general: Time-resolved FRET reads energy transfer from a long-lived donor to a nearby acceptor.

As for `CCC(C)(C)n1nc(C(=O)NCc2ccc(NC(=O)N(C)C)cc2)c2c1CCN(c1ccc(C(=O)N(C)C)cn1)C2` [Example 261, 5-(5-(dimethylcarbamoyl)pyridin-2-yl)-N-(4-(3,3-dimethylureido)benzyl)-1-(tert-pentyl)-4,5,6,7-tetrahydro-1H-pyrazolo[4,3-c]pyridine-3-carboxamide], the EC50 on STAT6 was 3570 nM. In test [1], the IC50 is > 30000 nM.

As for `CC(C1CCC1)n1nc(C(=O)NCc2ccc(NC(=O)N(C)C)cc2)c2c1CCN(c1ccc(C(=O)N(C)C)cn1)C2` (stereo not drawn) [Example 263, 1-(1-cyclobutylethyl)-5-(5-(dimethylcarbamoyl)pyridin-2-yl)-N-(4-(3,3-dimethylureido)benzyl)-4,5,6,7-tetrahydro-1H-pyrazolo[4,3-c]pyridine-3-carboxamide], the EC50 on STAT6 came to 9 nM. This compound also gave an IC50 in test [1] of 130 nM.

For the compound `CN(C)C(=O)Nc1ccc(CNC(=O)c2nn(C3CCCC3)c3c2CN(c2ccc(C(=O)N(C)C)cn2)CC3)cc1` [Example 264, 1-cyclopentyl-5-(5-(dimethylcarbamoyl)pyridin-2-yl)-N-(4-(3,3-dimethylureido)benzyl)-4,5,6,7-tetrahydro-1H-pyrazolo[4,3-c]pyridine-3-carboxamide], the EC50 on STAT6 is 7 nM. In addition, the IC50 in test [1] was determined as 131 nM.

Turning to `CC(C)n1nc(C(=O)NCc2ccc(NC(=O)N(C)C)cc2)c2c1C1(CC1)CN(c1ccc(C(=O)N(C)C)cn1)C2` [Example 266, 5′-(5-(dimethylcarbamoyl)pyridin-2-yl)-N-(4-(3,3-dimethylureido)benzyl)-1′-isopropyl-1′,4′,5′,6′-tetrahydrospiro[cyclopropane-1,7′-pyrazolo[4,3-c]pyridine]-3′-carboxamide], the EC50 on STAT6 worked out at 3 nM. The compound also returned an IC50 in test [1] of 45 nM.

On to `CC(n1nc(C(=O)NCc2ccc(NC(=O)N(C)C)cc2)c2c1CCN(c1ccc(C(=O)N(C)C)cn1)C2)C(C)(C)C` (stereo not drawn) [Example 278, 1-(3,3-dimethylbutan-2-yl)-5-(5-(dimethylcarbamoyl)pyridin-2-yl)-N-(4-(3,3-dimethylureido)benzyl)-4,5,6,7-tetrahydro-1H-pyrazolo[4,3-c]pyridine-3-carboxamide], for which the EC50 on STAT6 worked out at 5 nM. Moreover, inhibition in test [1] was half-maximal at 253 nM (IC50).

For the compound `CC(C)Cn1nc(C(=O)NCc2ccc(NC(=O)N(C)C)cc2)c2c1CCN(c1ccc(C(=O)N(C)C)cn1)C2` [Example 279, 5-(5-(dimethylcarbamoyl)pyridin-2-yl)-N-(4-(3,3-dimethylureido)benzyl)-1-isobutyl-4,5,6,7-tetrahydro-1H-pyrazolo[4,3-c]pyridine-3-carboxamide], the EC50 on STAT6 amounted to 9 nM. Further, in test [1], the IC50 amounted to 94 nM.

Consider `CCn1nc(C(=O)NCc2ccc(-c3ncc[nH]3)cc2)c2c1[C@@H](C)CN(c1ccc(C(=O)N(C)C)cn1)C2` [Example 283, (S)-N-(4-(1H-imidazol-2-yl)benzyl)-5-(5-(dimethylcarbamoyl)pyridin-2-yl)-1-ethyl-7-methyl-4,5,6,7-tetrahydro-1H-pyrazolo[4,3-c]pyridine-3-carboxamide], for which the concentration giving a half-maximal response (EC50) on STAT6 was 2 nM. 11 nM corresponded to half-maximal inhibition in test [1] (IC50).

On to `CCn1nc(C(=O)NCc2ccc(C(=O)NC)cc2)c2c1[C@@H](C)CN(c1ccc(C(=O)N(C)C)cn1)C2` [Example 284, (S)-5-(5-(dimethylcarbamoyl)pyridin-2-yl)-1-ethyl-7-methyl-N-(4-(methylcarbamoyl)benzyl)-4,5,6,7-tetrahydro-1H-pyrazolo[4,3-c]pyridine-3-carboxamide], for which the EC50 on STAT6 is 8 nM. Also, the IC50 in test [1] was found to be 40 nM.

For `CC(C)n1nc(C(=O)NCc2ccc(NC(=O)N(C)C)cc2)c2c1CCN(c1ccc(CC(=O)N(C)C)cn1)C2` [Example 286, 5-(5-(2-(Dimethylamino)-2-oxoethyl)pyridin-2-yl)-N-(4-(3,3-dimethylureido)benzyl)-1-isopropyl-4,5,6,7-tetrahydro-1H-pyrazolo[4,3-c]pyridine-3-carboxamide], the EC50 at STAT6 was 663 nM. Also, in test [1], the IC50 was > 3060 nM.

`CCn1nc(C(=O)NCc2ccc(-c3ncc[nH]3)cc2)c2c1[C@@H](C)CN(c1ncc(C(=O)N(C)C)cn1)C2` [Example 301, (S)-N-(4-(1H-imidazol-2-yl)benzyl)-5-(5-(dimethylcarbamoyl)pyrimidin-2-yl)-1-ethyl-7-methyl-4,5,6,7-tetrahydro-1H-pyrazolo[4,3-c]pyridine-3-carboxamide]: the EC50 at STAT6 amounted to 1 nM. This compound yielded an IC50 in test [1] of 8 nM.

For `CCn1nc(C(=O)NCc2ccc(NC(=O)N(C)C)cn2)c2c1[C@@H](C)CN(c1ccc(C(=O)N(C)C)cn1)C2` [Example 302, (S)-5-(5-(dimethylcarbamoyl)pyridin-2-yl)-N-((5-(3,3-dimethylureido)pyridin-2-yl)methyl)-1-ethyl-7-methyl-4,5,6,7-tetrahydro-1H-pyrazolo[4,3-c]pyridine-3-carboxamide], the EC50 at STAT6 worked out at 6 nM. Moreover, half-maximal inhibition in test [1] (IC50) was put at 9 nM.

For the compound `CCn1nc(C(=O)NCc2ccc(NC(=O)N(C)C)cn2)c2c1[C@@H](C)CN(c1ncc(C(=O)N(C)C)cn1)C2` [Example 305, (S)-5-(5-(dimethylcarbamoyl)pyrimidin-2-yl)-N-((5-(3,3-dimethylureido)pyridin-2-yl)methyl)-1-ethyl-7-methyl-4,5,6,7-tetrahydro-1H-pyrazolo[4,3-c]pyridine-3-carboxamide], at STAT6, the EC50 worked out at 5 nM. The same compound registered an IC50 in test [1] of 7 nM.

As for `CCn1nc(C(=O)NCc2ccc(C(=O)NC)cc2)c2c1[C@@H](C)CN(c1ncc(C(=O)N(C)C)cn1)C2` [Example 306, (S)-5-(5-(dimethylcarbamoyl)pyrimidin-2-yl)-1-ethyl-7-methyl-N-(4-(methylcarbamoyl)benzyl)-4,5,6,7-tetrahydro-1H-pyrazolo[4,3-c]pyridine-3-carboxamide], the EC50 at STAT6 stood at 7 nM. In addition, in test [1], the IC50 is 33 nM.

With `CN(C)C(=O)Nc1ccc(CNC(=O)c2nn(CCC#N)c3c2CN(c2ccc(C(=O)N(C)C)cn2)CC3)cc1` [Example 308, 1-(2-cyanoethyl)-5-(5-(dimethylcarbamoyl)pyridin-2-yl)-N-(4-(3,3-dimethylureido)benzyl)-4,5,6,7-tetrahydro-1H-pyrazolo[4,3-c]pyridine-3-carboxamide], on STAT6, the EC50 amounted to 287 nM. Moreover, half-maximal inhibition in test [1] (IC50) required 718 nM.

For `CN(C)C(=O)Nc1ccc(CNC(=O)c2nn(CCC(N)=O)c3c2CN(c2ccc(C(=O)N(C)C)cn2)CC3)cc1` [Example 309, 1-(3-amino-3-oxopropyl)-5-(5-(dimethylcarbamoyl)pyridin-2-yl)-N-(4-(3,3-dimethylureido)benzyl)-4,5,6,7-tetrahydro-1H-pyrazolo[4,3-c]pyridine-3-carboxamide], on STAT6, the EC50 was found to be 1710 nM. Also, in test [1], 4100 nM corresponded to half-maximal inhibition (IC50).

In the case of `CN(C)C(=O)Nc1ccc(CNC(=O)c2nn(C3(C(F)(F)F)CC3)c3c2CN(c2ccc(C(=O)N(C)C)cn2)CC3)cc1` [Example 320, 5-(5-(dimethylcarbamoyl)pyridin-2-yl)-N-(4-(3,3-dimethylureido)benzyl)-1-(1-(trifluoromethyl)cyclopropyl)-4,5,6,7-tetrahydro-1H-pyrazolo[4,3-c]pyridine-3-carboxamide], at STAT6, the EC50 stood at 5 nM. Besides, in test [1], the IC50 is 135 nM.

For the compound `CCn1nc(C(=O)NCc2ccc(NC(=O)N(C)C)nc2)c2c1[C@@H](C)CN(c1ccc(C(=O)N(C)C)cn1)C2` [Example 323, (S)-5-(5-(dimethylcarbamoyl)pyridin-2-yl)-N-((6-(3,3-dimethylureido)pyridin-3-yl)methyl)-1-ethyl-7-methyl-4,5,6,7-tetrahydro-1H-pyrazolo[4,3-c]pyridine-3-carboxamide], the EC50 at STAT6 was 5 nM. Besides, half-maximal inhibition in test [1] (IC50) required 26 nM.

Take `CCn1nc(C(=O)NCc2ccc(NC(=O)N(C)C)nc2)c2c1[C@@H](C)CN(c1ncc(C(=O)N(C)C)cn1)C2` [Example 324, (S)-5-(5-(dimethylcarbamoyl)pyrimidin-2-yl)-N-((6-(3,3-dimethylureido)pyridin-3-yl)methyl)-1-ethyl-7-methyl-4,5,6,7-tetrahydro-1H-pyrazolo[4,3-c]pyridine-3-carboxamide]: the EC50 on STAT6 amounted to 5 nM. In addition, 18 nM corresponded to half-maximal inhibition in test [1] (IC50).
